Test [1] relates to 4T1 murine mammary cancer cells. Put plainly: Lung metastasis of luciferase-tagged 4T1 tumors in mice, imaging (relative light units). The test is classed as in vivo. Conditions: 4T1-luciferase tumor-bearing mice, osmotic pump, about 35 mg/kg/day, four weeks. The method, then: To determine whether specific PKC inhibitors could reduce the amount of PKC translocation/activation in vivo and thereby reduce tumor cell metastasis, animals were administered an αPKC peptide inhibitor, or appropriate control, via an implanted osmotic pump, following the injection of luciferase-tagged tumor cells. […] The data are summarized in the bar graph shown in FIG. 4, along with similar data relating to the use of a βIIV5-3-TAT conjugate peptide (βPKC; SEQ ID NO: 27). The extent of lung metastasis is expressed as relative light units.
Balb/c female mice (6 weeks old) were injected semi-orthotopically with 4T1 murine mammary cancer cells tagged with luciferase ([…] cells/100 μL). One week later, an osmotic minipump was implanted subcutaneously in each animal, for delivery of saline (control), TAT peptide (control, YGRKKRRQRRR, SEQ ID NO: 25), the peptide inhibitor αV5-3 (QLVIAN, SEQ ID NO: 6) attached via an N-terminal disulfide bond to TAT peptide (YGRKKRRQRRR-CC-QLVIAN, SEQ ID NO: 26).
In other experiments, the peptide inhibitor βIIV5-3 (QEVIAN, SEQ ID NO: 13) or εV1-2 (EAVSLKPT, SEQ ID NO: 20) is attached via an N-terminal disulfide bond to the TAT peptide (SEQ ID NOs: 27 and 28, respectively). The TAT control, αV5-3-TAT, βIIV5-3-TAT, or εV1-2-TAT conjugate peptides are administered at about 35 mg/kg/day for two and four weeks.
After two weeks of treatment with αV5-3-TAT, some animals were selected form imaging (IVIS® 29, Xenogen Corporation, Alameda, Calif.) and analysis, with the remaining animals imaged after four weeks of treatment.
FIG. 4 is a bar graph showing the extent of lung metastasis, expressed as relative light units (based on imaging as exemplified in FIG. 3), in tumor-bearing mice treated for four weeks with saline, the αV5-3-TAT conjugate peptide (αPKC), or the βIIV5-3-TAT conjugate peptide (βPKC). The extent of lung metastasis, quantified approximately by the relative light units, for mice treated with saline, the αPKC inhibitor, and the βIIV5-3 PKC inhibitor peptide is shown. The extent of lung metastases is reduced in the animals treated with the αPKC inhibitor.

Test [2] concerns the target T1, βIIPKC (Mus musculus, UniProt P68404).
T1 construct: endogenous in cells; host or cells: 4T1 murine mammary tumour cells grown as tumours in Balb/c mice
Briefly: Translocation of βIIPKC in tumor cells (immunoblot of cytosol and particulate fractions). The test is classed as in vivo. Conditions: FIG. 5B. The method, then:
FIGS. 5A-5B are bar graphs showing the percentage of translocation of αPKC (FIG. 5A) and βIIPKC (FIG. 5B) […] in tumor cells treated with αV5-3-TAT peptide.
To further characterize inhibition of metastasis using the α and βIIPKC inhibitors, the percentage of translocation of αPKC (FIG. 5A) and βIIPKC (FIG. 5B), […] was measured.
Background: In western blotting, separated proteins are transferred to a membrane and probed.

Test [3] relates to 4T1 tumor cells. Put plainly: Growth of primary tumors in vivo (number of tumor cells at primary site of injection). Conditions: animals injected with 4T1 tumor cells, FIG. 6A, versus saline. The arrangement: species or system mice. The method, then: FIG. 6A is a bar graph showing the affect of saline, the αV5-3-TAT conjugate peptide (αPKC), or the βIIV5-3-TAT conjugate peptide (βPKC) on the growth rate of primary tumors in vivo.
To determine if the effects observed with the α and βIIPKC peptide inhibitors was due to a decrease in metastasis as opposed to a decrease in primary tumor growth, animals injected with 4T1 tumor cells were treated with saline, the αV5-3-TAT conjugate peptide (αPKC), or the βIIV5-3-TAT conjugate peptide (βPKC) and the number of tumors cells at the primary site of injection were determined.

For test [4], the system named is MDA-MB-231 breast cancer cells. Put plainly: Wound healing (migration) assay, MDA-MB-231. The note with it: peptide 1 uM, re-applied every 2 h for 8 h. The test is classed as cell-based, human. How it is done: FIGS. 12A-12D are micrographs showing the efficacy of TAT carrier peptide (TAT; FIG. 12A), αV5-3-TAT peptide (Alpha; FIG. 12B), βIIV5-3 peptide (Beta2; FIG. 12C), and εV1-2 (Epsilon; FIG. 12D) on human MDA-MB-231 breast cancer cell migration.
(§1) To investigate the role of PKC inhibitors in reducing the migration of tumor cells, in vitro migration assays were performed using MDA-MB-231 breast cancer cells (FIGS. 12A-12D), MCF-7 breast cancer cell (FIGS. 13A-13D), JC cells (FIGS. 15A-15D), and 4T1 cells (FIGS. 16A-16D), in the presence of TAT carrier peptide (TAT), αV5-3-TAT peptide (Alpha), βIIV5-3 peptide (Beta2), or εV1-2 peptide (Epsilon).
(§2) Wound healing assay: Human or mouse breast cancer cell lines were grown in 6-well plates until about 90% confluent. Cells were then grown in serum free media overnight, before media was changed to media +1% FBS and peptide PKC inhibitors added (1 uM), at the same time a pipette tip was drawn across the cell layer to create a scrape ‘wound’. PKC inhibitors were re-applied every 2 h for a total of 8 h, before cells were left for a further 12 h and then the scrape was examined under phase contrast microscopy.

In test [5] the test system is MCF-7 breast cancer cells. Briefly: Wound healing (migration) assay, MCF-7. Conditions: peptide 1 uM, re-applied every 2 h for 8 h. The test is classed as cell-based, human. How it is done: FIGS. 13A-13D are micrographs showing the efficacy of TAT carrier peptide (TAT; FIG. 13A), αV5-3-TAT peptide (Alpha; FIG. 13B), βIIV5-3 peptide (Beta2; FIG. 13C), and εV1-2 (epsilon; FIG. 13D) on human MCF-7 breast cancer cell migration.
as §1, §2

Test [6] deals with JC cells. Briefly: Wound healing (migration) assay, JC. The test is classed as cell-based, mouse. The note with it: peptide 1 uM, re-applied every 2 h for 8 h. How it is done:
FIGS. 15A-15D are micrographs showing the efficacy of TAT carrier peptide (TAT; FIG. 15A), αV5-3-TAT peptide (Alpha; FIG. 15B), βIIV5-3 peptide (Beta2; FIG. 15C), and εV1-2 (Epsilon; FIG. 15D) on JC cell migration.
as §1, §2

Test [7] deals with MDA-MB-231 breast cancer cells. Briefly: Cell migration/invasion assay through a HUVEC monolayer, MDA-MB-231. The note with it: peptide 10 μM, re-applied every 2 hours for 10 hours. Format: cell-based, human. The source says:
(§3) FIGS. 14A and 14B are bar graphs showing the efficacy of TAT carrier peptide (TAT), αV5-3-TAT peptide (Alpha), βIIV5-3 peptide (Beta-2), and εV1-2 (Epsilon) in inhibiting the invasion of human MDA-MB-231 and MCF-7 breast cancer cells through a HUVEC monolayer. FIGS. 14C and 14D are bar graphs showing the efficacy of TAT carrier peptide (TAT) or αV5-3-TAT peptide in inhibiting the invasion of 4T1 (FIG. 11C) and MDA-MB-231 (FIG. 11D) cells.
FIGS. 14A and 14B show the results of a related experiment measuring the efficacy of TAT carrier peptide (TAT), αV5-3-TAT peptide (Alpha), βIIV5-3 peptide (Beta-2), and εV1-2 peptide (Epsilon) in inhibiting the invasion of human MDA-MB-231 and MCF-7 breast cancer cells through a HUVEC monolayer. FIGS. 14C and 14D show the results of a similar experiment showing the efficacy of TAT carrier peptide (TAT) or αV5-3-TAT peptide in inhibiting the invasion of 4T1 (FIG. 11C) and MDA-MB-231 (FIG. 11D) cells.
Cell Migration/invasion assay: Primary human endothelial cells (HUVEC's) were plated on top of a matrigel plug in trans-well plates. Once the cells had reached confluence (as determined by examination of a control well), 1×10^6 human breast cancer cells (MCF-7 or MDA-MB-231) expressing luciferase were added above the HUVEC cell layer. Where applicable, peptides were added to a final concentration of 10 μM and re-applied every 2 hours for 10 hours followed by further incubation. After 24-48 hours-incubation the HUVEC cell layer (and all other cells above the matrigel) were removed by scraping of the cell layer into the media and aspiration (repeated 3 times). The relative numbers of cancer cells that had crossed the HUVEC cell layer and entered the matrigel was then determined by bioluminescence detection of luciferase action following addition of luciferin substrate.

Test [8] has as its system MCF-7 breast cancer cells. Briefly: Cell migration/invasion assay through a HUVEC monolayer, MCF-7. The test is classed as cell-based, human. Conditions: peptide 10 μM, re-applied every 2 hours for 10 hours.
Excerpt: as §3
FIGS. 14A and 14B show the results of a related experiment measuring the efficacy of TAT carrier peptide (TAT), αV5-3-TAT peptide (Alpha), βIIV5-3 peptide (Beta-2), and εV1-2 peptide (Epsilon) in inhibiting the invasion of human MDA-MB-231 and MCF-7 breast cancer cells through a HUVEC monolayer. […]
Cell Migration/invasion assay: Primary human endothelial cells (HUVEC's) were plated on top of a matrigel plug in trans-well plates. Once the cells had reached confluence (as determined by examination of a control well), 1×10^6 human breast cancer cells (MCF-7 or MDA-MB-231) expressing luciferase were added above the HUVEC cell layer. […] The relative numbers of cancer cells that had crossed the HUVEC cell layer and entered the matrigel was then determined by bioluminescence detection of luciferase action following addition of luciferin substrate.

Bridges are numbered along the chain shown (N, C = ends). Where no end group is shown, it is not given here.

T1 sequence (P68404 1-673 isoform P68404-2): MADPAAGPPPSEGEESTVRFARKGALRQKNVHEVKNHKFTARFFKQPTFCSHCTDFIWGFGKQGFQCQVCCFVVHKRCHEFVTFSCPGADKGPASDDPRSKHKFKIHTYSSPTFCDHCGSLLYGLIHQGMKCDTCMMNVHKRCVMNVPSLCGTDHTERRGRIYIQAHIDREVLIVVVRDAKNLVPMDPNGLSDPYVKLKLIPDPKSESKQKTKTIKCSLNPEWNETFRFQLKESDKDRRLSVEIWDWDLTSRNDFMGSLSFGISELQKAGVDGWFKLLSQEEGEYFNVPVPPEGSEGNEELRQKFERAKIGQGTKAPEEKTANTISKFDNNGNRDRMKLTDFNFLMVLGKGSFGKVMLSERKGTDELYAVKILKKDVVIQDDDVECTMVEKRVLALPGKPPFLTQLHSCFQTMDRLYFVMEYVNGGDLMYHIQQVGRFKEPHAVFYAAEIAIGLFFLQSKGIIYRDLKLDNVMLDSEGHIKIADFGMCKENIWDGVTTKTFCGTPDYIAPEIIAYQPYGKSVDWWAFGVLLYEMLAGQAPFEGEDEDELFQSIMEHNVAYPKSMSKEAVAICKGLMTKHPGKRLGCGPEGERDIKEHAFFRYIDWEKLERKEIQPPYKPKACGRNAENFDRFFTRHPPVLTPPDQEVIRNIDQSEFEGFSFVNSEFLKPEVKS

On to “YGRKKRRQRRR-CC-CGRNAE (YGRKKRRQRRRCCCGRNAE; disulfide (positions not given here); also: TAT conjugated via disulfide, Cys pair not given here) [βIIV5-3-TAT]”, for which the “effect on lung metastasis compared to control animals (in words)” value in test [1] is listed as “less pronounced effect”; in test [1] (listed as βPKC inhibitor) it was “about half”. In addition, the “reduction of βIIPKC translocation” value in test [2] is listed as “did not significantly reduce”. Also, the “reduction in the number of cells at the primary tumor site” value in test [3] is recorded as “no reduction”. The “migration of MDA-MB-231 breast cancer cells” value in test [4] (listed as βIIPKC inhibitor) was “reduced migration and invasion”; in test [4] (listed as βIIV5-3 peptide), “reduced”. The “migration of MCF-7 breast cancer cells” value in test [5] (listed as βIIPKC inhibitor) is “reduced migration and invasion”; in test [5] (listed as βIIV5-3 peptide), “reduced”. For the same substance, the “migration of JC cells” value in test [6] was “reduced”. The “invasion of MDA-MB-231 cells through a HUVEC monolayer” value in test [7] was “reduced migration and invasion”. Also, in test [8], the “invasion of MCF-7 cells through a HUVEC monolayer” value is “reduced migration and invasion”.
Consider “YGRKKRRQRRR-CC-EAVSLKPT (YGRKKRRQRRRCCEAVSLKPT; disulfide 12-13 (inferred)) [εV1-2-TAT]”, for which the “invasion of MDA-MB-231 cells through a HUVEC monolayer” value in test [7] is “reduce invasion”. Besides, the “invasion of MCF-7 cells through a HUVEC monolayer” value in test [8] is reported as “reduce invasion”.

(Values after patent US20090137493A1, “Inhibition of tumor metastases using protein kinase C (PKC) inhibitors” (priority 2007, published 2009).)
